This is an account of results in US6653309B1, “Inhibitors of IMPDH enzyme technical field of the invention” (Vertex Pharmaceuticals Incorporated, priority 1999, dated 2003).

Bounds are passed on as bounds.

By Ki is commonly meant the dissociation constant of the complex between target and ligand, obtained from inhibition or displacement.

This experiment deals with IMPDH human type II (Homo sapiens, UniProt P12268). Description: IMPDH Activity Inhibition Assay. The class given is biochemical. Particulars: spectrophotometric NADH formation at 340 nm, 37° C., tight-binding equation of Henderson. On the procedure:
IMP dehydrogenase activity was assayed following an adaptation of the method first reported by Magasanik. [B. Magasanik et al., J. Biod. Chem., 226, p. 339 (1957), the disclosure of which is herein incorporated by reference]. Enzyme activity was measured spectrophotometrically, by monitoring the increase in absorbance at 340 nm due to the formation of NADH (ε340 is 6220 M^−1 cm^−1). The reaction mixture contained 0.1 M Tris pH 8.0, 0.1 M KCl, 3 mM EDTA, 2 mM DTT, […] and enzyme (IMPDH human type II) at a concentration of 15 to 50 nM. This solution is incubated at 37° C. for 10 minutes. The reaction is started by adding NAD to a final concentration of […] and the initial rate is measured by following the linear increase in absorbance at 340 nm for 10 minutes. For reading in a standard spectrophotometer (path length 1 cm) the final volume in the cuvette is 1.0 ml. The assay has also been adapted to a 96 well microtiter plate format; in this case the concentrations of all the reagents remain the same and the final volume is decreased to 200 μl.
For the analysis of inhibitors, the compound in question is dissolved in DMSO to a final concentration of 20 mM and added to the initial assay mixture for preincubation with the enzyme at a final volume of 2-5% (v/v). The reaction is started by the addition of NAD, and the initial rates measured as above. Ki determinations are made by measuring the initial, velocities in the presence of varying amounts of inhibitor and fitting the data using the tight-binding equation of Henderson (Henderson, P. J. F. (1972) Biochem. J. 127, 321].
For the compound `O=C(Nc1cccc(Cl)c1)c1cc2ccccc2cc1O` [Compound 156], the Ki fell in the range of 10 to 20 µM.

In turn, `O=C(Nc1cccc(C(F)(F)F)c1)c1cc2ccccc2cc1O` [Compound 123] gave a Ki below 10 µM.

Regarding `COc1ccccc1N(Cc1ccccc1)C(=O)c1cc2ccccc2cc1O` [Compound 107], the Ki fell in the range of 10 to 20 µM.

As to `Cc1cccc(NC(=O)c2cc3ccccc3cc2O)c1` [Compound 122], the Ki was in the range of 10 to 20 µM.

For `COc1ccc(C(N)=O)cc1NC(=O)c1cc2ccccc2cc1O` [Compound 165], the Ki was 10 to 20 µM.

For `COc1ccc(OC)c(S(=O)(=O)NCc2c(F)cccc2Cl)c1` [Compound 314], the Ki fell in the range of 10 to 20 µM.

As for `COc1ccc(C(C)(C)C)cc1NC(=O)c1cc2ccccc2cc1O` [Compound 177], the Ki was in the range of 10 to 20 µM.

Compound `COc1ccccc1NS(=O)(=O)c1ccccc1O` [Compound 322] registered a Ki of 10 to 20 µM.

`COc1ccc(NC(=O)c2cc3ccccc3cc2O)c(OC)c1` [Compound 186] yielded a Ki of 10 to 20 µM.

Compound `CSc1cccc(NC(=O)c2cc3ccccc3cc2O)c1` [Compound 173] had a Ki of 10 to 20 µM.

In turn, `O=C(Nc1ccccc1O)c1cc(Br)ccc1O` [Compound 203] had a Ki above 20 µM.

Regarding `O=C(Nc1ccccc1Oc1ccccc1)c1cc2ccccc2cc1O` [Compound 183], the Ki was below 10 µM.

`O=C(Nc1ccc(F)cc1)c1cc2ccccc2cc1O` [Compound 166] came in with a Ki of 10 to 20 µM.

With `COc1ccccc1NC(=O)c1cc2ccccc2cc1O` [Compound 100], the Ki was below 10 µM.

Turning to `O=C(Nc1ccccc1O)c1cc2ccccc2cc1O` [Compound 190], the Ki was above 20 µM.

Turning to `COc1cc(Cl)ccc1NC(=O)Sc1ccccc1O` [Compound 305], the Ki is below 10 µM.

`CCC(C)c1ccc(OC)c(NC(=O)c2cc3ccccc3cc2O)c1` (stereo not drawn) [Compound 164]: the Ki was below 10 µM.

Consider `COc1ccc(C(=O)Nc2ccccc2OC)c(O)c1` [Compound 150], for which the inhibitory constant (Ki) was 10 to 20 µM.

`COc1ccc(-c2ccccc2)cc1NC(=O)c1cc2ccccc2cc1O` [Compound 154] had a Ki of 10 to 20 µM.

Take `CCS(=O)(=O)c1ccc(OC)c(NC(=O)c2cc3ccccc3cc2O)c1` [Compound 159]: the Ki is 10 to 20 µM.

In the case of `COc1ccccc1N(C)C(=O)c1cc2ccccc2cc1O` [Compound 105], the Ki lay within 10 to 20 µM.

`COc1ccccc1NC(=O)c1ccc2ccccc2c1O` [Compound 146] registered a Ki of 10 to 20 µM.

On to `COc1cc(NC(=O)c2cc3ccccc3cc2O)cc(OC)c1` [Compound 188], for which the Ki fell in the range of 10 to 20 µM.

Compound `COc1ccccc1NC(=O)c1ccc2ccccc2c1` [Compound 110] came in with a Ki of 10 to 20 µM.

`COc1ccccc1NC(=O)c1ccccc1OC` [Compound 108] displayed a Ki of 10 to 20 µM.

In the case of `COc1ccccc1N(C)C(=O)c1cc2cc(Br)ccc2cc1O` [Compound 149], the Ki lay within 10 to 20 µM.

The compound `O=C(Nc1cccc(OC(F)(F)F)c1)c1ccc2ccccc2c1` [Compound 143] gave a Ki below 10 µM.

The compound `O=C(Nc1ccccc1OC(F)(F)F)c1cc2ccccc2cc1O` [Compound 135] gave a Ki of 10 to 20 µM.

As to `COc1ccc(OC)c(S(=O)(=O)Nc2ccc([N+](=O)[O-])cc2)c1` [Compound 308], the Ki fell in the range of 10 to 20 µM.

The compound `COc1ccc(S(=O)(=O)C(F)F)cc1NC(=O)c1cc2ccccc2cc1O` [Compound 160] yielded a Ki of 10 to 20 µM.

Turning to `CSc1ccccc1NC(=O)c1cc2ccccc2cc1O` [Compound 169], the Ki was below 10 µM.

On to `COc1ccccc1NC(=O)c1ccccc1` [Compound 133], for which the Ki lay within 10 to 20 µM.

`CCCC(=O)Oc1cc2ccccc2cc1C(=O)Nc1ccc(OC)cc1` [Compound 117] came in with a Ki above 20 µM.

Consider `O=C(Nc1ccc(C(F)(F)F)cc1)c1cc2ccccc2cc1O` [Compound 124], for which the Ki was below 10 µM.

The compound `COc1cc(NC(=O)c2cc3ccccc3cc2O)c(OC)cc1Cl` [Compound 170] came in with an inhibition constant (Ki) below 10 µM.

Compound `COc1ccccc1NC(=O)c1ccccc1O` [Compound 147] came in with a Ki below 10 µM.

For the compound `COc1ccccc1N(C)Cc1cc2cc(Br)ccc2cc1O` [Compound 151], the Ki was below 10 µM.

Compound `O=C(Nc1ccccc1Oc1ccccc1)c1cc(Br)ccc1O` [Compound 204] yielded a Ki above 20 µM.

As for `COc1ccc(OC)c(S(=O)(=O)Nc2ccccc2Cl)c1` [Compound 315], the Ki was in the range of 10 to 20 µM.

As to `CCCC(=O)Oc1cc2ccccc2cc1C(=O)Nc1cccc(OC)c1` [Compound 116], the Ki was above 20 µM.

For `O=C(Nc1ccccc1F)c1cc2ccccc2cc1O` [Compound 162], the Ki fell in the range of 10 to 20 µM.

The compound `COc1cc(Cl)c(C)cc1NC(=O)c1cc2ccccc2cc1O` [Compound 181] showed a Ki below 10 µM.

Regarding `COc1ccccc1C(=O)Nc1ccccc1Oc1ccccc1` [Compound 196], the Ki was 10 to 20 µM.

Regarding `COc1ccccc1NC(=O)c1cccc(-c2ccccc2)c1O` [Compound 152], the Ki was 10 to 20 µM.

As to `COc1ccc(OC)c(S(=O)(=O)Nc2cccc(C#N)c2)c1` [Compound 309], the Ki is 10 to 20 µM.

In turn, `COc1ccccc1NC(=O)c1cc2ccccc2cc1OC(=O)c1ccccc1` [Compound 111] had a Ki below 10 µM.

`COc1cc(NC(=O)c2cc3ccccc3cc2O)ccc1C#N` [Compound 125]: the Ki lay within 10 to 20 µM.

`COc1ccc(C)cc1NC(=O)c1ccccc1OC` [Compound 194] showed a Ki above 20 µM.
